The test addresses T1, sterol 14-reductase (Rattus norvegicus, UniProt A0ACM8Q6X4).
T1 construct: microsome which was used as an enzyme source of sterol 14-reductase; from tissue; host or cells: liver microsomes of male Sprague-Dawley rats fed lovastatin and cholestyramine
T1 sequence (A0ACM8Q6X4 1-418): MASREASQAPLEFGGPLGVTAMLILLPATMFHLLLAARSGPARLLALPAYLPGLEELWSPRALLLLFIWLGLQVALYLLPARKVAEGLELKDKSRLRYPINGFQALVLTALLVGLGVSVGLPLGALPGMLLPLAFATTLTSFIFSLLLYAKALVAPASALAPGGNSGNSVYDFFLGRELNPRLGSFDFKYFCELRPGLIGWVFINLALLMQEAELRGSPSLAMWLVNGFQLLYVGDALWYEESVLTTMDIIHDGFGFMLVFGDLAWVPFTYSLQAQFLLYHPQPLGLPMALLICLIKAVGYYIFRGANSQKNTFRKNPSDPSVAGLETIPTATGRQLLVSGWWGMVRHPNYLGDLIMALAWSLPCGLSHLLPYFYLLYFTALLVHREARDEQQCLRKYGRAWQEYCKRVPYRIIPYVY
The experiment in a line: Inhibition of sterol 14-reductase in rat liver microsomes. The class given is biochemical. The settings on record: read-out: Enzyme Activity (relative in vitro activity for sterol 14-reductase, IC50 class). Background: Liver microsomes are vesicles of endoplasmic reticulum, rich in cytochrome P450 enzymes.

Read-outs that look alike come from different tables or passages of the source.

We go through 28 compounds from US6028197A, “Dibenzo[a,g]quinolizinium derivatives and the salts thereof” (Hanwha Corporation, priority 1998, dated 2000).

Procedure: 20 Male Sprague-Dawley rats weighing from 150 to 250 g have been fed for 7 days with a diet containing 0.1% (w/w) Lovastatin and 5% (w/w) Cholestyramine. The animals were fasted for 12 hours before excising liver tissues and then sacrificed by decapitation at midnight. An aqueous solution containing 0.25M of sucrose was injected into the hepatic portal vein to remove all the blood within the liver, and then, the liver was excised. The liver was homogenated with two volumes of buffer solution A (0.1M potassium phosphate, 1 mM reduced glutathione, 0.5 mM EDTA, 20% (v/v) glycerol, pH 7.4) by repeating pestles over 10 times and then, centrifuged with 900×g for 5 minutes to give a supernatant. The supernatant was centrifuged with 12,000×g for 20 minutes. The supernatant obtained was ultracentrifuged with 105,000×g for 90 minutes to give a microsome which was used as an enzyme source of sterol 14-reductase. Assay for sterol 14-reductase was carried out as follows:
60 mmol of 4,4-dimethyl-5α-cholesta-7,14-dien-3β-ol and 5,6-dihydrodibenzo-[a,g]quinolizinium salts (compound no. 2) dissolved in DMSO were added to an assay mixture (total volume 1.0 ml) containing 2 mg of the microsomal protein, 2 mM of NADPH and 25 mg of glucose plus 20 units of glucose oxidase with preincubations under nitrogen at 37° C. for 4 min. unless otherwise specified to establish anaerobic condition. Buffer A (0.1M potassium phosphate buffer, pH 7.4, including 1 mM reduced glutathione, 0.5 mM EDTA, and 20% (v/v) glycerol) used for incubation had been equilibrated with nitrogen, and nitrogen was exchanged for air in all sealed reaction flasks prior to the start of incubations. Incubation of the complete mixture was carried out anaerobically in sealed flasks for 10 min at 37° C. unless otherwise indicated. Incubations were terminated by the addition of 1 ml of ethanolic KOH followed by heating under reflux for 10 min. Sterols were extracted four times with 4 ml of petroleum ether, and the solvent was evaporated to dryness under a nitrogen stream. The resulting residue was dissolved in 200-500 μl of n-hexane for quantification by GLC at high sensitive attenuation. The activity of sterol 14-reductase was determined with the amount of the substrate wherein the double bonds of 14-carbon were reduced (for the amount reduced by 1 mg of the microsome protein for 1 minute).

With `CCCCCCCCCCCCOc1c(OC)ccc2c(CC)c3[n+](cc12)CCc1cc(OC)c(OC)cc1-3` [Compound No. 1, 5,6-dihydro-2,3-dimethoxybenzo[a]-9-dodecoxy-13-ethyl-10-methoxybenzo[g]quinolizinium chloride], the IC50 – broadly, the concentration that gives 50% inhibition – was under 1 µM.
For the compound `CCc1c2[n+](cc3c(OCc4ccc(F)cc4C(F)(F)F)c(OC)ccc13)CCc1cc(OC)c(OC)cc1-2` [Compound No. 4, 5,6-dihydro-2,3-dimethoxybenzo[a]-13-ethyl-9-[4-fluoro-2-(trifluoromethyl)benzyloxy]-10-methoxybenzo[g]-quinolizinium chloride], the half-inhibitory concentration (IC50) was 10 to 100 µM.
In the case of `CCc1c2[n+](cc3c(OCc4cc(OC)c(OC)cc4[N+](=O)[O-])c(OC)ccc13)CCc1cc(OC)c(OC)cc1-2` [Compound No. 5, 5,6-dihydro-2,3-dimethoxybenzo[a]-9-(4,5-dimethoxy-2-nitro)benzyloxy-13-ethyl-10-methoxybenzo[g]-quinolizinium chloride], the IC50 was under 1 µM.
With `CCc1c2[n+](cc3c(OCc4ccc(C)c([N+](=O)[O-])c4)c(OC)ccc13)CCc1cc(OC)c(OC)cc1-2` [Compound No. 6, 5,6-dihydro-2,3-dimethoxybenzo[a]-13-ethyl-10-methoxy-9-(4-methyl-3-nitro)benzyloxybenzo[g]quinolizinium chloride], the IC50 (microsomes) is under 1 µM.
In the case of `CCc1c2[n+](cc3c(OCc4cc([N+](=O)[O-])ccc4OC)c(OC)ccc13)CCc1cc(OC)c(OC)cc1-2` [Compound No. 7, 5,6-dihydro-2,3-dimethoxybenzo[a]-13-ethyl-10-methoxy-9-(2-methoxy-5-nitro)benzyloxybenzo[g]quinolizinium chloride], the IC50 lay in the range of 10 to 100 µM.
On the same count and under the same terms, then `C=Cc1ccc(COc2c(OC)ccc3c(CC)c4[n+](cc23)CCc2cc(OC)c(OC)cc2-4)cc1` [Compound No. 8, 5,6-dihydro-2,3-dimethoxybenzo[a]-13-ethyl-10-methoxy-9-(4-vinyl)benzyloxybenzo[g]quinolizinium chloride], with over 100 µM; and `CCc1c2[n+](cc3c(OCc4ccc(F)cc4Cl)c(OC)ccc13)CCc1cc(OC)c(OC)cc1-2` [Compound No. 10, 5,6-dihydro-2,3-dimethoxybenzo[a]-9-(2-chloro-4-fluro)benzyloxy-13-ethyl-10-methoxybenzo[g]quinolizinium chloride], with 10 to 100 µM; and `CCc1c2[n+](cc3c(OCc4cccc(C(F)(F)F)c4)c(OC)ccc13)CCc1cc(OC)c(OC)cc1-2` [Compound No. 11, 5,6-dihydro-2,3-dimethoxybenzo[a]-13-ethyl-10-methoxy-9-(3-trifluoromethyl)benzyloxybenzo[g]quinolizinium chloride], with under 1 µM.
On the same count and under the same terms, then `CCc1c2[n+](cc3c(OCc4cccc(OC)c4)c(OC)ccc13)CCc1cc(OC)c(OC)cc1-2` [Compound No. 12, 5,6-dihydro-2,3-dimethoxybenzo[a]-13-ethyl-10-methoxy-9-(3-methoxy)benzyloxybenzo[g]quinolizinium chloride], with over 100 µM; and `CCc1c2[n+](cc3c(OCc4c(F)c(F)c(C(F)(F)F)c(F)c4F)c(OC)ccc13)CCc1cc(OC)c(OC)cc1-2` [Compound No. 13, 5,6-dihydro-2,3-dimethoxybenzo[a]-13-ethyl-10-methoxy-9-(2,3,5,6-tetrafluoro-4-trifluoromethyl)benzyloxy-benzo[g]quinolizinium chloride], with under 1 µM; and `CCc1c2[n+](cc3c(OCc4ccc(OCc5ccccc5)cc4)c(OC)ccc13)CCc1cc(OC)c(OC)cc1-2` [Compound No. 14, 5,6-dihydro-2,3-dimethoxybenzo[a]-9-(4-benzyloxy)-benzyloxy-13-ethyl-10-methoxybenzo[g]quinolizinium chloride], with over 100 µM.
On the same count and under the same terms, then `CCc1c2[n+](cc3c(OCc4cc(C)ccc4C)c(OC)ccc13)CCc1cc(OC)c(OC)cc1-2` [Compound No. 15, 5,6-dihydro-2,3-dimethoxybenzo[a]-9-(2,5-dimethyl)benzyloxy-13-ethyl-10-methoxybenzo[g]quinolizinium chloride], with over 100 µM; and `CCc1c2[n+](cc3c(OCc4ccc(-c5ccccc5)cc4)c(OC)ccc13)CCc1cc(OC)c(OC)cc1-2` [Compound No. 16, 5,6-dihydro-2,3-dimethoxybenzo[a]-13-ethyl-10-methoxy-9-(4-phenyl)benzyloxybenzo[g]quinolizinium chloride], with under 1 µM.
In the case of `CCc1c2[n+](cc3c(OCc4ccc(Cl)nc4)c(OC)ccc13)CCc1cc(OC)c(OC)cc1-2` [Compound No. 17, 5,6-dihydro-2,3-dimethoxybenzo[a]-9-(6-chloropyridine-3-yl)methoxy-13-ethyl-10-methoxybenzo[g]quinoli-zinium chloride], the half-inhibitory concentration (IC50) was under 1 µM.
For the compound `CCc1c2[n+](cc3c(OCc4cccc(Cl)c4)c(OC)ccc13)CCc1cc(OC)c(OC)cc1-2` [Compound No. 18, 5,6-dihydro-2,3-dimethoxybenzo[a]-9-(3-chloro)-benzyloxy-13-ethyl-10-methoxybenzo[g]quinolizinium chloride], the half-inhibitory concentration (IC50) lay in the range of 10 to 100 µM.
On the same count and under the same terms, then `CCc1c2[n+](cc3c(OCc4ccc(Br)cc4)c(OC)ccc13)CCc1cc(OC)c(OC)cc1-2` [Compound No. 19, 5,6-dihydro-2,3-dimethoxybenzo[a]-9-(4-bromo)benzyloxy-13-ethyl-10-methoxybenzo[g]quinolizinium chloride], with 10 to 100 µM; and `CCc1c2[n+](cc3c(OCc4ccccc4C(F)(F)F)c(OC)ccc13)CCc1cc(OC)c(OC)cc1-2` [Compound No. 20, 5,6-dihydro-2,3-dimethoxybenzo[a]-13-ethyl-10-methoxy-9-(2-trifluoromethyl)benzyloxybenzo[g]quinolizinium chloride], with 10 to 100 µM; and `CCc1c2[n+](cc3c(OCc4cccc(Oc5ccccc5)c4)c(OC)ccc13)CCc1cc(OC)c(OC)cc1-2` [Compound No. 21, 5,6-dihydro-2,3-dimethoxybenzo[a]-13-ethyl-10-methoxy-9-(3-phenoxy)benzyloxybenzo[g]quinolizinium chloride], with over 100 µM.
Same read-out and setting: then `CCc1c2[n+](cc3c(OCc4ccc(OC)cc4)c(OC)ccc13)CCc1cc(OC)c(OC)cc1-2` [Compound No. 22, 5,6-dihydro-2,3-dimethoxybenzo[a]-13-ethyl-10-methoxy-9-(4-methoxy)benzyloxybenzo[g]quinolizinium chloride], with over 100 µM; and `CCc1c2[n+](cc3c(OCc4c(F)cccc4Cl)c(OC)ccc13)CCc1cc(OC)c(OC)cc1-2` [Compound No. 23, 5,6-dihydro-2,3-dimethoxybenzo[a]-9-(2-chloro-6-fluoro)benzyloxy-13-ethyl-10-methoxybenzo[g]quinolizinium chloride], with 10 to 100 µM; and `CCc1c2[n+](cc3c(OCc4cccc([N+](=O)[O-])c4C)c(OC)ccc13)CCc1cc(OC)c(OC)cc1-2` [Compound No. 24, 5,6-dihydro-2,3-dimethoxybenzo[a]-13-ethyl-10-methoxy-9-(2-methyl-3-nitro)benzyloxybenzo[g]quinolizinium chloride], with over 100 µM.
On to `CCc1c2[n+](cc3c(OCc4cc(C)ccc4[N+](=O)[O-])c(OC)ccc13)CCc1cc(OC)c(OC)cc1-2` [Compound No. 25, 5,6-dihydro-2,3-dimethoxybenzo[a]-13-ethyl-10-methoxy-9-(5-methyl-2-nitro)benzyloxybenzo[g]quinolizinium chloride], for which the IC50 was over 100 µM.
`C=CCOc1c(OC)ccc2c(CC)c3[n+](cc12)CCc1cc(OC)c(OC)cc1-3` [Compound No. 26, 5,6-dihydro-2,3-dimethoxybenzo[a]-13-ethyl-10-methoxy-9-allyloxybenzo[g]quinolizinium chloride]: the half-maximal inhibitory concentration (IC50) is over 100 µM.
As for `CCc1c2[n+](cc3c(OCc4ccc(C)cc4C)c(OC)ccc13)CCc1cc(OC)c(OC)cc1-2` [Compound No. 28, 5,6-dihydro-2,3-dimethoxybenzo[a]-9-(2,4-dimethyl)benzyloxy-13-ethyl-10-methoxybenzo[g]quinolizinium chloride], the half-inhibitory concentration (IC50) is over 100 µM.
Still for that read-out and setting: then `CCc1c2[n+](cc3c(OCn4nnc5ccccc54)c(OC)ccc13)CCc1cc(OC)c(OC)cc1-2` [Compound No. 29, 5,6-dihydro-2,3-dimethoxybenzo[a]-9-(1H-benzo-triazol-1-yl)methoxy-13-ethyl-10-methoxybenzo[g]-quinolizinium chloride], with 10 to 100 µM.
On the same count and under the same terms, then `CCc1c2[n+](cc3c(OCc4ccc(C(C)C)cc4)c(OC)ccc13)CCc1cc(OC)c(OC)cc1-2` [Compound No. 30, 5,6-dihydro-2,3-dimethoxybenzo[a]-13-ethyl-9-[4-(i-propyl)benzyloxy]-10-methoxybenzo[g]quinolizinium chloride], with over 100 µM.
Same read-out and setting: then `CCc1c2[n+](cc3c(OCc4ccc(C)cc4)c(OC)ccc13)CCc1cc(OC)c(OC)cc1-2` [Compound No. 31, 5,6-dihydro-2,3-dimethoxybenzo[a]-13-ethyl-10-methoxy-9-(4-methyl)benzyloxybenzo[g]quinolizinium chloride], with over 100 µM; and `CCc1c2[n+](cc3c(OCc4cccc(C)c4)c(OC)ccc13)CCc1cc(OC)c(OC)cc1-2` [Compound No. 32, 5,6-dihydro-2,3-dimethoxybenzo[a]-13-ethyl-10-methoxy-9-(3-methyl)benzyloxybenzo[g]quinolizinium chloride], with over 100 µM.
